# From patent US20100159039A1, “ANTIVIRAL AGENTS CONTAINING A FERMENTATION PRODUCT OF GARLIC BY LACTIC ACID BACTERIA” (Liisna Inc., priority 2008, published 2010)
# Like-named read-outs stand apart in the source and are kept apart here.
# Columns and labels:
# [1] = test system: influenza virus Type H1N1 (A/Taiwan/1/86); assay: CPE inhibition assay in MDCK cells, influenza A/H1N1; type: cell-based; conditions: for EC50: 72 h, MDCK cells, 100 CCID50, three days, read-out: Antiviral activity (EC50) Taiwan A/H1N1
# [2] = test system: influenza virus Type H3N2 (A/Seoul/11/88); assay: CPE inhibition assay in MDCK cells, influenza A/H3N2; type: cell-based; conditions: for EC50: 72 h, MDCK cells, 100 CCID50, three days, read-out: Antiviral activity (EC50) Seoul A/H3N2
# [3] = test system: influenza virus Type B (B/Panama/45/90); assay: CPE inhibition assay in MDCK cells, influenza B; type: cell-based; conditions: for EC50: Influenza B virus, MDCK, 72 h, read-out: Antiviral activity (EC50) Panama B
# in vitro = conditions: dog
# [4] = test system: MDCK (Madin-Darby canine kidney) cells
compound,measurement,setting,value
"NC12CC3CC(CC(C3)C1)C2 [Amantadine, amantadine]",EC50,[1],> 100 µg/mL
same,"Selectivity index (SI, CC50/EC50) Seoul A/H3N2",[2],>204.1
same,EC50,[2],0.49 µg/mL
same,EC50,[3],> 100 µg/mL
same,CC50,in vitro,> 100 µg/mL
"CC(O)C(=O)O (centres unmarked) [Lactic acid, lactic acid]","Selectivity index (SI, CC50/EC50) Taiwan A/H1N1",[1]; CC50/EC50,<1.00
same,"Selectivity index (SI, CC50/EC50) Seoul A/H3N2",[2]; CC50/EC50,<1.00
same,"Selectivity index (SI, CC50/EC50) Panama B",[3],<1.00
same,Toxicity CC50 (50% cytotoxic concentration),[4],0.014
"CCOC(=O)C1=C[C@@H](OC(CC)CC)[C@H](NC(C)=O)[C@@H](N)C1 [Oseltamivir, oseltamivir]",EC50,[1],16.4 µg/mL
same,"Selectivity index (SI, CC50/EC50) Taiwan A/H1N1",[1]; CC50/EC50,>6.1
same,EC50,[2],0.49 µg/mL
same,"Selectivity index (SI, CC50/EC50) Seoul A/H3N2",[2]; CC50/EC50,>202.4
same,"Selectivity index (SI, CC50/EC50) Panama B",[3],>9.9
same,EC50,[3],10.1 µg/mL
same,CC50,in vitro,> 100 µg/mL
"NC(=O)c1ncn([C@@H]2O[C@H](CO)[C@@H](O)[C@H]2O)n1 [Ribavirin, ribavirin]","Selectivity index (SI, CC50/EC50) Taiwan A/H1N1",[1],>15.3
same,EC50,[1],6.54 µg/mL
same,"Selectivity index (SI, CC50/EC50) Seoul A/H3N2",[2],>34.7
same,EC50,[2],2.88 µg/mL
same,"Selectivity index (SI, CC50/EC50) Panama B",[3],>43.7
same,EC50,[3],2.29 µg/mL
same,CC50,in vitro,> 100 µg/mL
